# Data from ChEMBL document CHEMBL1201862, “PubChem BioAssay data set” (2004).
#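 Cultured in 96-well plates, cells were exposed to test compound for 48 hours across five concentrations. GI50 = concentration required for 50% inhibition of growth.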 Activity calls are given as the source filed them. Rule as the data show it: active = GI50 up to about 1.1 µM and inactive = higher.
# Columns and labels:
# Experiment in all cases: NCI anticancer screen, dose series, 48 h
# NCI/ADR-RES = test system: NCI/ADR-RES
# HCC 2998 = test system: HCC 2998
# OVCAR-4 = test system: OVCAR-4
# MDA-MB-435 = test system: MDA-MB-435
# COLO 205 = test system: COLO 205
# A549 = test system: A549
# SF-539 = test system: SF-539
# BT-549 = test system: BT-549
# PC-3 = test system: PC-3
# Malme-3M = test system: Malme-3M
# MDA-MB-231 = test system: MDA-MB-231
# SK-MEL-5 = test system: SK-MEL-5
# RPMI-8226 = test system: RPMI-8226
# HL-60 = test system: HL-60
# UACC-257 = test system: UACC-257
# SK-OV-3 = test system: SK-OV-3
# OVCAR-8 = test system: OVCAR-8
# CAKI-1 = test system: CAKI-1
# NCI-H522 = test system: NCI-H522
# HT-29 = test system: HT-29
# NCI-H23 = test system: NCI-H23
# HCT-15 = test system: HCT-15
# NCI-H460 = test system: NCI-H460
# HOP-62 = test system: HOP-62
# UACC-62 = test system: UACC-62
# MCF7 = test system: MCF7
# MDA-N = test system: MDA-N
# MOLT-4 = test system: MOLT-4
# 786-0 = test system: 786-0
# SW-620 = test system: SW-620
# T47D = test system: T47D
# NCI-H226 = test system: NCI-H226
# DU-145 = test system: DU-145
# IGROV-1 = test system: IGROV-1
# HOP-92 = test system: HOP-92
# SF-268 = test system: SF-268
# ACHN = test system: ACHN
# U-251 = test system: U-251
# SNB-19 = test system: SNB-19
# OVCAR-3 = test system: OVCAR-3
# UO-31 = test system: UO-31
# RXF 393 = test system: RXF 393
# OVCAR-5 = test system: OVCAR-5
# HCT-116 = test system: HCT-116
# EKVX = test system: EKVX
# TK-10 = test system: TK-10
# SN12C = test system: SN12C
# SK-MEL-2 = test system: SK-MEL-2
# Hs-578T = test system: Hs-578T
# M14 = test system: M14
# LOX IMVI = test system: LOX IMVI
# SF-295 = test system: SF-295
# SR = test system: SR
# CCRF-CEM = test system: CCRF-CEM
# K562 = test system: K562
# KM12 = test system: KM12
# SNB-75 = test system: SNB-75
# SK-MEL-28 = test system: SK-MEL-28
structure (smiles),measurement,setting,value
Clc1ccc(Cc2nc3ccccc3nc2-c2cccc(Cl)c2)cc1,GI50,NCI/ADR-RES,3.1 µM (inactive)
same,GI50,HCC 2998,1.85 µM (inactive)
same,GI50,OVCAR-4,1.51 µM (inactive)
same,GI50,MDA-MB-435,1.95 µM (inactive)
same,GI50,COLO 205,2.8 µM (inactive)
same,GI50,A549,15.6 µM (inactive)
same,GI50,SF-539,2.25 µM (inactive)
same,GI50,BT-549,4.49 µM (inactive)
same,GI50,PC-3,2.26 µM (inactive)
same,GI50,Malme-3M,2.25 µM (inactive)
same,GI50,MDA-MB-231,2.47 µM (inactive)
same,GI50,SK-MEL-5,4.91 µM (inactive)
same,GI50,RPMI-8226,0.405 µM (active)
same,GI50,HL-60,2.51 µM (inactive)
same,GI50,UACC-257,13.8 µM (inactive)
same,GI50,SK-OV-3,17.2 µM (inactive)
same,GI50,OVCAR-8,3.56 µM (inactive)
same,GI50,CAKI-1,2.73 µM (inactive)
same,GI50,NCI-H522,1.61 µM (inactive)
same,GI50,HT-29,2.61 µM (inactive)
same,GI50,NCI-H23,13.5 µM (inactive)
same,GI50,HCT-15,1.66 µM
same,GI50,NCI-H460,16.3 µM (inactive)
same,GI50,HOP-62,17.8 µM (inactive)
same,GI50,UACC-62,1.86 µM (inactive)
same,GI50,MCF7,2.92 µM (inactive)
same,GI50,MDA-N,2.28 µM (inactive)
same,GI50,MOLT-4,2.06 µM (inactive)
same,GI50,786-0,1.84 µM (inactive)
same,GI50,SW-620,1.61 µM (inactive)
same,GI50,T47D,3.35 µM (inactive)
same,GI50,NCI-H226,20.3 µM (inactive)
same,GI50,DU-145,14.2 µM (inactive)
same,GI50,IGROV-1,1.95 µM (inactive)
same,GI50,HOP-92,1.7 µM (inactive)
same,GI50,SF-268,18.3 µM (inactive)
same,GI50,ACHN,1.93 µM (inactive)
same,GI50,U-251,4.68 µM (inactive)
same,GI50,SNB-19,1.8 µM (inactive)
same,GI50,OVCAR-3,4.21 µM (inactive)
same,GI50,UO-31,1.78 µM (inactive)
same,GI50,RXF 393,2.04 µM (inactive)
same,GI50,OVCAR-5,7.38 µM (inactive)
same,GI50,HCT-116,1.72 µM (inactive)
same,GI50,EKVX,17.5 µM (inactive)
same,GI50,TK-10,12.3 µM (inactive)
same,GI50,SN12C,2.94 µM (inactive)
same,GI50,SK-MEL-2,3.24 µM (inactive)
same,GI50,Hs-578T,3.47 µM (inactive)
same,GI50,M14,2.43 µM (inactive)
same,GI50,LOX IMVI,1.95 µM (inactive)
same,GI50,SF-295,17.1 µM (inactive)
same,GI50,SR,1.54 µM (inactive)
same,GI50,CCRF-CEM,0.0311 µM (active)
same,GI50,K562,1.94 µM (inactive)
same,GI50,KM12,3.48 µM (inactive)
CCCCCCCCCCCCCCCCP(=O)(O)OP(=O)(O)OCC1OC(n2cnc3c(N)ncnc32)C(O)C1O (stereo unspecified),GI50,NCI/ADR-RES,31.1 µM (inactive)
same,GI50,HCC 2998,22.5 µM (inactive)
same,GI50,OVCAR-4,36.3 µM (inactive)
same,GI50,MDA-MB-435,30.6 µM (inactive)
same,GI50,COLO 205,32.7 µM (inactive)
same,GI50,A549,33.5 µM (inactive)
same,GI50,SF-539,19.1 µM (inactive)
same,GI50,BT-549,42.4 µM (inactive)
same,GI50,PC-3,20.7 µM (inactive)
same,GI50,Malme-3M,22.2 µM (inactive)
same,GI50,MDA-MB-231,35.1 µM (inactive)
same,GI50,SK-MEL-5,29 µM (inactive)
same,GI50,HL-60,35.4 µM (inactive)
same,GI50,UACC-257,23.7 µM (inactive)
same,GI50,SK-OV-3,28.6 µM (inactive)
same,GI50,SNB-75,20.5 µM (inactive)
same,GI50,OVCAR-8,22 µM (inactive)
same,GI50,CAKI-1,28.7 µM (inactive)
same,GI50,NCI-H522,22.1 µM (inactive)
same,GI50,HT-29,20.3 µM (inactive)
same,GI50,NCI-H23,26.8 µM (inactive)
same,GI50,HCT-15,23.8 µM
same,GI50,NCI-H460,24.5 µM (inactive)
same,GI50,HOP-62,19.5 µM (inactive)
same,GI50,UACC-62,24.3 µM (inactive)
same,GI50,MCF7,22.6 µM (inactive)
same,GI50,MDA-N,43.4 µM (inactive)
same,GI50,MOLT-4,17.3 µM (inactive)
same,GI50,786-0,22.8 µM (inactive)
same,GI50,SW-620,29 µM (inactive)
same,GI50,T47D,82.6 µM (inactive)
same,GI50,NCI-H226,20.9 µM (inactive)
same,GI50,DU-145,46.9 µM (inactive)
same,GI50,IGROV-1,16.3 µM (inactive)
same,GI50,HOP-92,21.4 µM (inactive)
same,GI50,SF-268,30.3 µM (inactive)
same,GI50,ACHN,26.7 µM (inactive)
same,GI50,U-251,20 µM (inactive)
same,GI50,SNB-19,20 µM (inactive)
same,GI50,OVCAR-3,32.2 µM (inactive)
same,GI50,UO-31,15.8 µM (inactive)
same,GI50,OVCAR-5,15.5 µM (inactive)
same,GI50,HCT-116,21.5 µM (inactive)
same,GI50,EKVX,92 µM (inactive)
same,GI50,TK-10,15.6 µM (inactive)
same,GI50,SN12C,20.8 µM (inactive)
same,GI50,SK-MEL-2,42.5 µM (inactive)
same,GI50,Hs-578T,26.4 µM (inactive)
same,GI50,M14,27.5 µM (inactive)
same,GI50,LOX IMVI,27.4 µM (inactive)
same,GI50,SR,45.5 µM (inactive)
same,GI50,SK-MEL-28,35.7 µM (inactive)
same,GI50,CCRF-CEM,29.6 µM (inactive)
same,GI50,K562,25.8 µM (inactive)
same,GI50,KM12,26.1 µM (inactive)
